Results taken from patent publication US6667387B1, “HCV core peptides” (priority 1992, dated 2003).
Ends that are not written are not given here.

Experiments:
[1] = tested on: antibodies in sera from HCV-seropositive donors; test: ELISA with HCV antibody-positive sera (biotinylated peptides on streptavidin- or avidin-coated plates, unbiotinylated peptides coated directly); type: binding, human
Summary of the method: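 Read-out is OD at 450 nm after HRP goat anti-human Ig and TMB development, following 1 h at 37° C. with seropositive or negative sera diluted 1:100 (or 20-fold). Antigen was either unbiotinylated peptide adsorbed on plastic (pH 9.6 carbonate, 2–5 or 3 μg/ml) or biotinylated peptide at 1 μg/ml captured on streptavidin-coated wells, with casein blocking.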

[2] = ELISA with seronegative / negative control sera (specificity); type: binding, human
Summary of the method: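 Specificity readout is OD at 450 nm (HRP goat anti-human Ig, TMB/H2O2, sulfuric acid stop), with ≥0.250 counted positive. Seronegative donor sera (typically 1:100, 1 h, 37° C) were applied to casein-blocked wells coated with peptide directly or via streptavidin capture of biotinylated peptide.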

ETWKKPDYEPPVVHGCPLPP
optical density (450 nm) ([1]; Table 4G, serum 1, 20-fold dilution): 2.523 | optical density (450 nm) ([1]; Table 4G, serum 33, 20-fold dilution): 1.463 | optical density (450 nm) ([1]; Table 4G, serum 39, 20-fold dilution): 0.068 | optical density (450 nm) ([1]; Table 4G, serum 47, 20-fold dilution): 2.117 | optical density (450 nm) ([1]; Table 4G, serum 79, 20-fold dilution): 1.739 | optical density (450 nm) ([1]; Table 4G, serum 83, 20-fold dilution): 1.121 | optical density (450 nm) ([1]; Table 4G, serum 88, 20-fold dilution): 0.972 | optical density (450 nm) ([1]; Table 4G, serum 89, 20-fold dilution): 2.079 | optical density (450 nm) ([1]; Table 4G, serum 91, 20-fold dilution): 2.202 | optical density (450 nm) ([1]; Table 4G, serum 99, 20-fold dilution): 1.253 | optical density (450 nm) ([1]; Table 4G, serum 104, 20-fold dilution): 1.864 | optical density (450 nm) ([1]; Table 4G, serum 105, 20-fold dilution): 1.522 | optical density (450 nm) ([1]; Table 4G, serum 110, 20-fold dilution): 1.981 | optical density (450 nm) ([1]; Table 4G, serum 111, 20-fold dilution): 1.363 | optical density (450 nm) ([1]; Table 4G, serum 112, 20-fold dilution): 1.172 | optical density (450 nm) ([1]; Table 4G, serum 116, 20-fold dilution): 1.534 | optical density (450 nm) ([1]; Table 4G, serum 120, 20-fold dilution): 1.599 | optical density (450 nm) ([1]; Table 5, sample 8242 (positive), peptide concentration 0.01 micrograms per milliliter, listed as Unbiotinylated HCV peptide XVIII): 0.048 | optical density (450 nm) ([1]; Table 5, sample 8242 (positive), peptide concentration 0.03 micrograms per milliliter, listed as Unbiotinylated HCV peptide XVIII): 0.049 | optical density (450 nm) ([1]; Table 5, sample 8242 (positive), peptide concentration 0.1 micrograms per milliliter, listed as Unbiotinylated HCV peptide XVIII): 0.047 | optical density (450 nm) ([1]; Table 5, sample 8242 (positive), peptide concentration 0.3 micrograms per milliliter, listed as Unbiotinylated HCV peptide XVIII): 0.048 | optical density (450 nm) ([1]; Table 5, sample 8242 (positive), peptide concentration 1.0 micrograms per milliliter, listed as Unbiotinylated HCV peptide XVIII): 0.049 | optical density (450 nm) ([1]; Table 5, sample 8242 (positive), peptide concentration 3.0 micrograms per milliliter, listed as Unbiotinylated HCV peptide XVIII): 0.053 | optical density (450 nm) ([1]; Table 5, sample 8243 (positive), peptide concentration 0.01 micrograms per milliliter, listed as Unbiotinylated HCV peptide XVIII): 0.053 | optical density (450 nm) ([1]; Table 5, sample 8243 (positive), peptide concentration 0.03 micrograms per milliliter, listed as Unbiotinylated HCV peptide XVIII): 0.053 | optical density (450 nm) ([1]; Table 5, sample 8243 (positive), peptide concentration 0.1 micrograms per milliliter, listed as Unbiotinylated HCV peptide XVIII): 0.051 | optical density (450 nm) ([1]; Table 5, sample 8243 (positive), peptide concentration 0.3 micrograms per milliliter, listed as Unbiotinylated HCV peptide XVIII): 0.054 | optical density (450 nm) ([1]; Table 5, sample 8243 (positive), peptide concentration 1.0 micrograms per milliliter, listed as Unbiotinylated HCV peptide XVIII): 0.053 | optical density (450 nm) ([1]; Table 5, sample 8243 (positive), peptide concentration 3.0 micrograms per milliliter, listed as Unbiotinylated HCV peptide XVIII): 0.057 | optical density (450 nm) ([1]; Table 5, sample 8318 (positive), peptide concentration 0.01 micrograms per milliliter, listed as Unbiotinylated HCV peptide XVIII): 0.048 | optical density (450 nm) ([1]; Table 5, sample 8318 (positive), peptide concentration 0.03 micrograms per milliliter, listed as Unbiotinylated HCV peptide XVIII): 0.047 | optical density (450 nm) ([1]; Table 5, sample 8318 (positive), peptide concentration 0.1 micrograms per milliliter, listed as Unbiotinylated HCV peptide XVIII): 0.047 | optical density (450 nm) ([1]; Table 5, sample 8318 (positive), peptide concentration 0.3 micrograms per milliliter, listed as Unbiotinylated HCV peptide XVIII): 0.047 | optical density (450 nm) ([1]; Table 5, sample 8318 (positive), peptide concentration 1.0 micrograms per milliliter, listed as Unbiotinylated HCV peptide XVIII): 0.045 | optical density (450 nm) ([1]; Table 5, sample 8318 (positive), peptide concentration 3.0 micrograms per milliliter, listed as Unbiotinylated HCV peptide XVIII): 0.051 | optical density (450 nm) ([1]; Table 5, sample 8326 (positive), peptide concentration 0.01 micrograms per milliliter, listed as Unbiotinylated HCV peptide XVIII): 0.051 | optical density (450 nm) ([1]; Table 5, sample 8326 (positive), peptide concentration 0.03 micrograms per milliliter, listed as Unbiotinylated HCV peptide XVIII): 0.051 | optical density (450 nm) ([1]; Table 5, sample 8326 (positive), peptide concentration 0.1 micrograms per milliliter, listed as Unbiotinylated HCV peptide XVIII): 0.049 | optical density (450 nm) ([1]; Table 5, sample 8326 (positive), peptide concentration 0.3 micrograms per milliliter, listed as Unbiotinylated HCV peptide XVIII): 0.053 | optical density (450 nm) ([1]; Table 5, sample 8326 (positive), peptide concentration 1.0 micrograms per milliliter, listed as Unbiotinylated HCV peptide XVIII): 0.053 | optical density (450 nm) ([1]; Table 5, sample 8326 (positive), peptide concentration 3.0 micrograms per milliliter, listed as Unbiotinylated HCV peptide XVIII): 0.052 | optical density (450 nm) ([2]; Table 4G, negative serum): 0.001 | optical density (450 nm) ([2]; Table 5, sample 1747 (negative), peptide concentration 0.01 micrograms per milliliter, listed as Unbiotinylated HCV peptide XVIII): 0.047 | optical density (450 nm) ([2]; Table 5, sample 1747 (negative), peptide concentration 0.03 micrograms per milliliter, listed as Unbiotinylated HCV peptide XVIII): 0.044 | optical density (450 nm) ([2]; Table 5, sample 1747 (negative), peptide concentration 0.1 micrograms per milliliter, listed as Unbiotinylated HCV peptide XVIII): 0.045 | optical density (450 nm) ([2]; Table 5, sample 1747 (negative), peptide concentration 0.3 micrograms per milliliter, listed as Unbiotinylated HCV peptide XVIII): 0.046 | optical density (450 nm) ([2]; Table 5, sample 1747 (negative), peptide concentration 1.0 micrograms per milliliter, listed as Unbiotinylated HCV peptide XVIII): 0.045 | optical density (450 nm) ([2]; Table 5, sample 1747 (negative), peptide concentration 3.0 micrograms per milliliter, listed as Unbiotinylated HCV peptide XVIII): 0.048 | optical density (450 nm) ([2]; Table 5, sample 1781 (negative), peptide concentration 0.01 micrograms per milliliter, listed as Unbiotinylated HCV peptide XVIII): 0.053 | optical density (450 nm) ([2]; Table 5, sample 1781 (negative), peptide concentration 0.03 micrograms per milliliter): 0.051 | optical density (450 nm) ([2]; Table 5, sample 1781 (negative), peptide concentration 0.1 micrograms per milliliter, listed as Unbiotinylated HCV peptide XVIII): 0.051 | optical density (450 nm) ([2]; Table 5, sample 1781 (negative), peptide concentration 0.3 micrograms per milliliter, listed as Unbiotinylated HCV peptide XVIII): 0.051 | optical density (450 nm) ([2]; Table 5, sample 1781 (negative), peptide concentration 1.0 micrograms per milliliter, listed as Unbiotinylated HCV peptide XVIII): 0.054 | optical density (450 nm) ([2]; Table 5, sample 1781 (negative), peptide concentration 3.0 micrograms per milliliter, listed as Unbiotinylated HCV peptide XVIII): 0.055
